# Key:
# [1] = Permeability of the compound at pH 7.4; assay type: ADME; conditions: PAMPA, read-out: permeability
# [2] = Antiviral activity against DENV2 infected in human Huh-7 cells assessed as log reduction of viral titre measured at 1 uM measured after 72 hrs; assay type: functional, dengue virus type 2
# dengue virus type 2 [3] = assay: Antiviral activity against DENV2; assay type: functional, organism-based
# [4] = Antiviral activity against DENV2 infected in human K562 cells assessed as log reduction of viral titre measured at 1 uM measured after 72 hrs; assay type: functional, dengue virus type 2
# dengue virus type 2 [5] = assay: Antiviral activity against DENV2 assessed as inhibition of viral replication; assay type: functional, organism-based
# dengue virus type 3 = assay: Antiviral activity against DENV3 infected in human Huh-7 cells assessed as inhibition of viral replication measured after 72 hrs post infection by qRT-PCR analysis; assay type: functional, organism-based; conditions: Huh-7, 72 h
# dengue virus type 1 [6] = assay: Antiviral activity against DENV1 infected in human Huh-7 cells assessed as inhibition of viral replication measured after 72 hrs post infection by qRT-PCR analysis; assay type: functional, organism-based; conditions: Huh-7, 72 h
# dengue virus type 4 = assay: Antiviral activity against DENV4 infected in human Huh-7 cells assessed as inhibition of viral replication measured after 72 hrs post infection by qRT-PCR analysis; assay type: functional, organism-based; conditions: Huh-7, 72 h
# dengue virus type 2 [7] = assay: Antiviral activity against DENV2 infected in human Huh-7 cells assessed as inhibition of viral replication measured after 72 hrs post infection by qRT-PCR analysis; assay type: functional, organism-based; conditions: Huh-7, 72 h
# Genome polyprotein [8] = biological target: T1, Genome polyprotein (dengue virus type 2, UniProt P29990); assay: Inhibition of DENV2 NS2B-NS3 protease
# T1 sequence (P29990 1346-1475 limits assumed): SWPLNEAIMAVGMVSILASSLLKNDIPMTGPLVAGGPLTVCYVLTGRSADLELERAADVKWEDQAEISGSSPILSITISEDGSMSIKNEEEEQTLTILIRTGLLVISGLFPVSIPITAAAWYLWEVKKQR
# T1 sequence (P29990 1476-2093 limits assumed): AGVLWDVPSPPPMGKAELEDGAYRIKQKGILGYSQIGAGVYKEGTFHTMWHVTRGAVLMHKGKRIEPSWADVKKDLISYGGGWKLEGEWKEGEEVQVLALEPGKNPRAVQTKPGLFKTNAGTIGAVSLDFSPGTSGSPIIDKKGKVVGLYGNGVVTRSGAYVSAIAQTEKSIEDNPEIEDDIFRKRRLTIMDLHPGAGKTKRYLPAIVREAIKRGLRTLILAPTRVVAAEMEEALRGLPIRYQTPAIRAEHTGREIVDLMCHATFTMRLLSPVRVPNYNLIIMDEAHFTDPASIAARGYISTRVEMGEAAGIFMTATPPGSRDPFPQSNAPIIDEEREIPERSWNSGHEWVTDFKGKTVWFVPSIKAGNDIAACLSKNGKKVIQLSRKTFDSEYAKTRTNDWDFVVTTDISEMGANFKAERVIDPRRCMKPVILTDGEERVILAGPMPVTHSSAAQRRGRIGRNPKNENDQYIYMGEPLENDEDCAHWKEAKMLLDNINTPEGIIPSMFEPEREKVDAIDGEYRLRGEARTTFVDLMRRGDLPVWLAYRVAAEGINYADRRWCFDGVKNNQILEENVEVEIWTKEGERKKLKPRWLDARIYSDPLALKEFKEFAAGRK
# Genome polyprotein [9] = biological target: T1, Genome polyprotein; assay: Binding affinity to DENV2 NS2B/NS3 protease assessed as inhibition constant
# [10] = Inhibition of DENV2 pro; set-up: species or system dengue virus type 2
# dengue virus type 2 [11] = assay: Antiviral activity against Dengue virus 2 infected in african green monkey Vero cells assessed as reduction in viral titer; assay type: functional, organism-based
# Genome polyprotein [12] = biological target: T1, Genome polyprotein; assay: Inhibition of DENV2 NS2B-NS3 protease using Boc-Gly-Arg-Arg-MCA as substrate by fluorescence assay
# [13] = Inhibition of DENV2 protease infected in human HeLa cells; assay type: cell-based, dengue virus type 2; conditions: Dengue virus
# Genome polyprotein [14] = biological target: T1, Genome polyprotein; assay: Inhibition of DENV2 NS2B-NS3 protease using fluorophore-tagged Bz-nKRR-AMC as substrate preincubated for 30 mins followed by substrate addition measured after 90 mins by microplate reader analysis
# Genome polyprotein [15] = biological target: T1, Genome polyprotein; assay: Inhibition of DENV2 NS2B-NS3 protease using Boc-Gly-Arg-Arg-7-amino-4-methylcoumarin as substrate incubated for 10 mins by fluorometric assay
# [16] = Cytotoxicty against BHK-21 cells assessed as reduction in cell viability; assay type: toxicity, cell-based; conditions: Mesocricetus auratus (golden hamster)
# [17] = Antiviral activity against DENV2 infected in BHK-21 cells assessed as inhibition of viral replication; assay type: functional, cell-based, dengue virus type 2; conditions: Dengue virus
# Genome polyprotein [18] = biological target: T1, Genome polyprotein; assay: Inhibition of DENV NS2B/NS3 pro
# Dengue virus = assay: Antiviral activity against Dengue virus assessed as reduction in viral titer at 50 uM preincubated for 1 hr measured after 24 hrs post infection by plaque assay relative to control; assay type: functional; set-up: scale not given: the % may be the effect or the level left; conditions: time 25 hrs
# Genome polyprotein [19] = biological target: T1, Genome polyprotein; assay: Inhibition of DENV-2 NS2bNS3 pro
# [20] = Antiviral activity against Dengue virus 3 infected in african green monkey Vero cells assessed as reduction in viral titer preincubated for 1 hour with cells followed by viral infection and measured upto 7 days by plague assay relative to control; assay type: functional, dengue virus type 3; conditions: time <= 7 day
# dengue virus type 1 [21] = assay: Antiviral activity against Dengue virus 1 infected in african green monkey Vero cells assessed as reduction in viral titer preincubated for 1 hour with cells followed by viral infection and measured upto 7 days by plague assay relative to control; assay type: functional; conditions: time <= 7 day
# [22] = Antiviral activity against Dengue virus 2 infected in african green monkey Vero cells assessed as reduction in viral titer preincubated for 1 hour with cells followed by viral infection and measured upto 7 days by plague assay relative to control; assay type: functional, dengue virus type 2; conditions: time <= 7 day
# [23] = Antiviral activity against Dengue virus 4 infected in african green monkey Vero cells assessed as reduction in viral titer preincubated for 1 hour with cells followed by viral infection and measured upto 7 days by plague assay relative to control; assay type: functional, dengue virus type 4; conditions: time <= 7 day
# Genome polyprotein [24] = biological target: T1, Genome polyprotein; assay: Inhibition of DENV-2 NS2B/NS3 protease expressed in Escherichia coli XL1 using Boc-GRR-MCA as substrate preincubated for 10 mins followed by substrate addition and measured after 60 mins
# [25] = Antiviral activity against DENV2 infected in human HepG2 cells measured after 48 hrs by plaque assay; assay type: functional, cell-based, dengue virus type 2; conditions: Dengue virus, HepG2, 48 h
# Genome polyprotein [26] = biological target: T1, Genome polyprotein; assay: Inhibition of DENV2 NS2B-NS3 protease using […] as substrate preincubated for 10 mins followed by substrate addition and incubated for 60 mins by fluorescence spectroscopy assay
# [27] = Antiviral activity against DENV2 infected in african green monkey Vero cells assessed as reduction of viral titre by viral plaque reduction assay; assay type: functional, cell-based, dengue virus type 2; conditions: Dengue virus
# [28] = Inhibition of West Nile Virus NS2B (residues 1393 to 1440 )/NS3pro (residues 1476 to 1687) protease expressed in Escherichia coli BL21 (DE3) using e Pyr- RTKR-AMC as substrate preincubated for 30 mins followed by substrate addition and incubated for 90 mins by fluorescence spectrophotometry assay
# [29] = Antiviral activity against DENV-2 NGC infected in african green monkey Vero B cells assessed as reduction in virus induced cytopathic effect; assay type: functional, cell-based, dengue virus type 2; conditions: Dengue virus
# dengue virus type 2 [30] = assay: Antiviral activity against DENV2 infected in human Huh-7 cells using Boc-GRR-AMC as substrate incubated for 30 mins by fluorescence spectroscopy assay; assay type: functional, organism-based; conditions: Huh-7, 0.5 h
# dengue virus type 2 [31] = assay: Antiviral activity against DENV-2 infected in human Huh-7 cells assessed as reduction in viral RNA treated for 3 days by qRT-PCR analysis; assay type: functional, organism-based; conditions: Huh-7, 72 h
# [32] = Inhibition of DENV2 pro infected in human Huh-7 cells using 7-amino-4-methylcoumarin (AMC) fluorophore-linked Boc-GRR-AMC as substrate incubated for 30 mins; assay type: cell-based, dengue virus type 2; conditions: Dengue virus, Huh-7, 0.5 h
# Genome polyprotein [33] = biological target: T1, Genome polyprotein; assay: Inhibition of DENV NS2B/NS3 protease transfected in human Huh-7 cells using 7-amino-4-methylcoumarin (AMC) fluorophore-linked peptide substrate Boc-GRR-AMC as substrate by fluoroscence based assay; assay type: cell-based
# dengue virus type 2 [34] = assay: Antiviral activity against DENV2 (TR1751) infected in BHK-21 cells assessed as reduction in virus titre at 1000 uM by focus forming assay relative to control; assay type: functional; set-up: scale not given: the % may be the effect or the level left
# dengue virus type 2 [35] = assay: Antiviral activity against DENV2 (TR1751) infected in BHK-21 cells assessed as reduction in virus titre at 100 uM by focus forming assay relative to control; assay type: functional; set-up: scale not given: the % may be the effect or the level left
smiles,measurement,setting,value
O=C1c2c(O)ccc([N+](=O)[O-])c2C(=O)c2c([N+](=O)[O-])ccc(O)c21,Papp,[1],4.45 ×10⁻⁶ cm/s
same,log(activity),[2],>1 PFU/ml
same,EC50,dengue virus type 2 [3],4.2 µM
same,log(activity),[4],>1 PFU/ml
CC(=O)O[C@H]1CC(C)(C)C(=C=C/C(C)=C/C=C/C=C/C=C(C)/C=C2C=C(/C=C/[C@@]34O[C@]3(C)C[C@@H](O)CC4(C)C)C(=O)O/2)[C@](C)(O)C1,EC50,dengue virus type 2 [5],4.5 µM
same,EC50,dengue virus type 3,5.84 µM
same,EC50,dengue virus type 1 [6],5.84 µM
same,EC50,dengue virus type 4,5.84 µM
same,EC50,dengue virus type 2 [7],4.5 µM
N#C/C(=C\c1ccc(O)cc1)C(N)=O,Papp,[1],8.4 ×10⁻⁶ cm/s
same,Ki,Genome polyprotein [8],35.7 µM
same,Ki,Genome polyprotein [9],35.7 µM
N=C(N)NCCC[C@H](NC(=O)c1nccs1)C(=O)N[C@@H](CCCCN)C(=O)N[C@@H](C(N)=O)c1ccc(OCc2ccc(C(F)(F)F)cc2)cc1,IC50,[10],0.018 µM
O=C(O)c1cc2sc(NC(=O)c3ccccc3Sc3ccc(C(F)(F)F)cc3)nc2cc1O,EC50,dengue virus type 2 [11],0.9 µM
CCCCC1C(C(=O)N(C)OC)C(c2ccccc2)CCN1C(=O)OC(C)(C)C (stereo not given),IC50,Genome polyprotein [12],257 µM
O=C(Nc1nc2cc(O)c(O)cc2s1)c1ccccc1Sc1ccc(C(F)(F)F)cc1,IC50,[10],3.6 µM
same,EC50,dengue virus type 2 [11],> 3 µM
CCCCCC(=O)N[C@H](C(=O)NCc1ccc(NC(=N)N)cc1)c1ccc(OCc2ccccc2)cc1,EC50,[13],0.49 µM
COc1ccc(S(=O)(=O)n2nc(Oc3ccc(-c4ccccc4)cc3)cc2N)cc1,IC50,Genome polyprotein [14],2.9 µM
O=C(Nc1nc2ccc([N+](=O)[O-])cc2s1)c1ccccc1Sc1ccc(C(F)(F)F)cc1,IC50,Genome polyprotein [15],22 µM
same,EC50,dengue virus type 2 [11],0.1 µM
N=C(N)NCCC[C@@H](NC1NC(=O)C(N[C@H](CCCCN)C(=O)O)NC(=O)C(N2CCC[C@@H]2C(=O)O)NC(=O)C(N[C@H](Cc2ccccc2)C(=O)O)NC(=O)C(N[C@H](CO)C(=O)O)NC(=O)C(N[C@@H](Cc2ccccc2)C(=O)O)NC(=O)C(N[C@@H](CO)C(=O)O)NC(=O)[C@H](CCCCN)NC1=O)C(=O)O (stereo not given in full),IC50,[10],0.95 µM
Cc1c(O)cccc1C(=O)NC(CSc1ccccc1)C(O)CN1CC2CCCCC2C[C@H]1C(=O)NC(C)(C)C (stereo not given in full),EC50,dengue virus type 2 [3],3.5 µM
Cc1cc(O)c(S(=O)(=O)O)cc1Cc1cc(S(=O)(=O)O)c(O)c(Cc2cc(S(=O)(=O)O)c(O)cc2C)c1C,IC50,[16],459 µg/mL
same,IC50,[17],4.99 µg/mL
same,IC50,Genome polyprotein [18],0.815 µM
C[C@@H](CC[C@H](O)[C@](C)(O)CO)[C@@H]1CC[C@]2(C)C3=CC[C@@H]4C(C)(C)C(=O)CC[C@@]4(C)C3=CC[C@@]12C,Activity,Dengue virus,40%
N#C/C(=C/c1ccc(-c2ccc(C(=O)O)cc2)s1)c1nc2cc(Cl)ccc2[nH]1,IC50,Genome polyprotein [19],5.95 µM
same,inhibition (INH),[20],75%
same,inhibition (INH),dengue virus type 1 [21],50%
same,inhibition (INH),[22],83%
same,inhibition (INH),[23],73%
O=C(Nc1nc2ccc([N+](=O)[O-])cc2s1)c1ccccc1Sc1ccc([N+](=O)[O-])cc1,IC50,Genome polyprotein [15],34 µM
CCCCC(=O)Nc1nc(SC(=O)CCCC)c2nc[nH]c2n1,IC50,Genome polyprotein [24],0.38 µM
CCCCC1C(C(=O)OCC)C(c2ccccc2)CCN1C(=O)OC(C)(C)C (stereo not given),EC50,[25],3.2 µM
same,IC50,Genome polyprotein [12],214 µM
Oc1c(C(Nc2ccccc2)c2ccccn2)ccc2cccnc12 (stereo not given),Papp,[1],4.12 ×10⁻⁶ cm/s
same,Ki,Genome polyprotein [8],17 µM
same,Ki,Genome polyprotein [9],17 µM
O=C(Nc1nc2ccc([N+](=O)[O-])cc2s1)c1cccc(Sc2ccc([N+](=O)[O-])cc2)c1,IC50,Genome polyprotein [15],26 µM
same,EC50,dengue virus type 2 [11],0.3 µM
COc1ccc(C(=O)CN2C/C(=C/c3ccc([N+](=O)[O-])cc3)C(=O)/C(=C\c3ccc([N+](=O)[O-])cc3)C2)cc1,IC50,Genome polyprotein [26],16.2 µM
O=C1/C(=C\c2ccc([N+](=O)[O-])cc2)CN(CC(=O)c2ccc(F)cc2)C/C1=C/c1ccc([N+](=O)[O-])cc1,IC50,Genome polyprotein [26],15.2 µM
O=C1OC2(c3ccccc31)c1cc(I)c(O)c(I)c1OC1C(I)=C(O)C(I)=CC12 (stereo not given),EC50,dengue virus type 2 [3],1.2 µM
O=C(O)c1ccccc1-c1c2cc(I)c(=O)c(I)c-2oc2c(I)c(O)c(I)cc12,EC50,[27],1.2 µM
COc1ccc(S(=O)(=O)n2nc(OC(=O)c3ccccc3)cc2N)cc1,IC50,[28],0.105 µM
Cc1c(O)cccc1C(=O)N[C@@H](CSc1ccccc1)[C@H](O)CN1C[C@H]2CCCC[C@H]2C[C@H]1C(=O)NC(C)(C)C,EC50,[29],3.5 µM
COC(=O)c1[nH]c2ccc(Cl)cc2c1C(=O)c1cc(OC)c(OC)c(OC)c1,EC50,dengue virus type 2 [30],4.6 µM
same,EC50,dengue virus type 2 [31],4.6 µM
same,EC50,dengue virus type 2 [5],4.6 µM
same,EC50,[32],6.7 µM
same,EC50,Genome polyprotein [33],4.7 µM
Oc1cc(O)c2c(c1)O[C@H](c1ccc(O)c(O)c1)[C@H](O)C2 [(-)-EPICATECHIN],Activity,dengue virus type 2 [34],66.2%
same,Activity,dengue virus type 2 [35],77.7%
COc1cc(O)c(C(=O)[C@@H]2[C@H](CC=C(C)C)C(C)=CC[C@H]2c2ccccc2)c(O)c1 [PANDURATIN A],IC50,Genome polyprotein [26],57.3 µM
